US20240166630A1, “INDOLE DERIVATIVES AS SEROTONERGIC AGENTS USEFUL FOR THE TREATMENT OF DISORDERS RELATED THERETO” (Mindset Pharma Inc., priority 2021, published 2024)
pEC50, pIC50, pKi: −log10 of the molar value.

How the values were obtained:
[1] = Liver microsomes stability with NADPH, rat; conditions: for Remaining Percentage (%) after 60 min Rat: rat liver microsomes, with NADPH, 2 μM; for half-life at 2 μM / microsomal CLint at 2 μM: rat, microsomes
human 5-HT2A [2] = molecular target: T1, human 5-HT2A (Homo sapiens, UniProt P28223); test: Radioligand binding assay on human 5-HT2A receptor ([3H]-ketanserin)
Description: i. The assay buffer was prepared following the table below;
iii. Prepared (v/v) DMSO as follows: a. […] The plates were sealed and incubated at 4° C. for 3 hrs;
iv. Preparation of assay plates: a.
vi. The plates were sealed and incubated at 27° C. for 90 min.

[3] = Liver microsomes stability with NADPH, human; conditions: for Remaining Percentage (%) after 60 min Human: 2 μM; for half-life at 2 μM / microsomal CLint at 2 μM: human, microsomes
Description: (§1) The objective of this study was to estimate in vitro metabolic stability of representative compounds of the application in pooled human and male mouse liver microsomes. The concentrations of parent compounds in reaction systems were evaluated by LC-MS/MS for estimating the stability in pooled human and male mouse liver microsomes. The in vitro intrinsic clearances of test compounds were determined as well.
(§2) A master solution in the “Incubation Plate” containing phosphate buffer, ultra-pure H2O, MgCl2 solution and liver microsomes was made according to Table 3. The mixture was pre-warmed at 37° C. water bath for 5 minutes.
(§3) 40 μL of 10 mM NADPH solution was added to each well. The final concentration of NADPH was 1 mM. The negative control samples were prepared by replacing NADPH with 40 μL of ultra-pure H2O. Samples were prepared in duplicate. Negative controls were prepared in singlet.
(§4) The reaction was started with the addition of 4 μL of 200 μM test compounds or control compounds to each master solution to get the final concentration of 2 μM. This study was performed in duplicate.
(§5) Aliquots of 50 μL were taken from the reaction solution at 0, 15, 30, 45 and 60 minutes. The reaction solutions were stopped by the addition of 4 volumes of cold methanol with IS (100 nM alprazolam, 200 nM imipramine, 200 nM labetalol and 2 μM ketoprofen). Samples were centrifuged at 3,220 g for 40 minutes. Aliquot of 90 μL of the supernatant was mixed with 90 μL of ultra-pure H2O and then was used for LC-MS/MS analysis.
(§6) LC/MS analysis was performed for all samples from this study using a Shimadzu liquid chromatograph separation system equipped with degasser DGU-20A5R; solvent delivery unit LC-30AD; system controller SIL-30AC; column oven CTO-30A; CTC Analytics HTC PAL System; Mass spectrometric analysis was performed using an Triple Quad™ 5500 instrument.
(§7) All calculations were carried out using Microsoft Excel. Peak area ratios of test compound to internal standard (listed in the below table) were determined from extracted ion chromatograms.
(§8) All calculations were carried out using Microsoft Excel. Peak areas were determined from extracted ion chromatograms. The slope value, k, was determined by linear regression of the natural logarithm of the remaining percentage of the parent drug vs. incubation time curve.
(§9) The in vitro half-life (in vitro t1/2) was determined from the slope value:
(§10) Conversion of the in vitro t1/2 (min) into the in vitro intrinsic clearance (in vitro CLint, in μL/min/mg proteins) was done using the following equation (mean of duplicate determinations): […]

[4] = Liver microsomes stability with NADPH, mouse; conditions: for half-life at 2 μM / microsomal CLint at 2 μM: male, mouse, microsomes; for Remaining Percentage (%) after 60 min Mouse: mouse liver microsomes, with NADPH, 2 μM
Description: as §1, §2, §3, §4, §5, §6, §7, §8, §9, §10

[5] = molecular target: T2, human 5-HT2A (h5-HT2A) receptor (Homo sapiens, UniProt P28223); test: FLIPR assay, human 5-HT2A receptor under agonist mode; format: cell-based
T2 construct: expressed in transfected cells; kept under G418 and hygromycin B selection
Description: I. Assessment of the Activated Effect of Compounds of Formula I-B Targeting on Human 5-HT2A (h5-HT2A) Receptor Under Agonist Mode:
1. The cells were cultured in cell culture medium (DMEM containing 10% FBS, 1× penicillin-streptomycin 300 μg/ml G418 and 100 μg/ml hygromycin B) at 37° C., 5% (v/v) CO2.
2. One day before the assays, the cells were detached using TrypLE™ Express and count cells using cell counter.
3. 20000 cells/well were seeded in 30 μl/well culture medium to a 384-well cell plate and incubated the cells overnight at 37° C., 5% (v/v) CO2.
4. On the assay day, 2×dye solution was prepared following the manual of the FLIPR® Calcium 6 Assay Kit: i. The dye was diluted with assay buffer (20 mM HEPES in 1×HBSS, PH7.4); ii. probenecid was added to the final concentration of 5 mM; iii. Vortexed vigorously for 1-2 minutes.
5. Medium was removed from cell plate by flicking the cell plate on towel papers.
7. The cell plate was placed on plate shaker, the plate agitated at 600 rpm for 2 minutes. The plate was incubated at 37° C. for 2 hours followed by additional 15-minute incubation at 25° C.
8. 3×compound was prepared in assay buffer: a. Reference compounds were diluted to required concentration with DMSO. The compounds were added to a 384-well compound plate; b. Serial dilutions were performed; c. 10 mM test compounds were added to the compound plate, 3-fold serial dilutions were performed. […] 20 μl/well assay buffer was added to the compound plate; f.
9. The cell plate, compound plate and tips were placed into FLIPR, 10 μl of 3× compound was transferred to the cell plate per well with FLIPR.
i. The normalized fluorescence reading (RFU) was calculated as shown follow, while Fmax and Fmin stand for maximum and minimum of calcium signal during defined time window: RFU=Fmax−Fmin
ii. The percentage activation was calculated by using following equation: […]
iii. EC50 was calculated by fitting % activation against log of compound concentrations with Hill equation using Xlfit.

human 5-HT2A [6] = molecular target: T1, human 5-HT2A; conditions: read-out: binding affinity 5-HT2A; literature value; cited from earlier work
[7] = rapid first-pass metabolism by monoamine oxidase; cited from earlier work
[8] = human liver microsomes, with NADPH

T1 sequence (P28223 whole entry): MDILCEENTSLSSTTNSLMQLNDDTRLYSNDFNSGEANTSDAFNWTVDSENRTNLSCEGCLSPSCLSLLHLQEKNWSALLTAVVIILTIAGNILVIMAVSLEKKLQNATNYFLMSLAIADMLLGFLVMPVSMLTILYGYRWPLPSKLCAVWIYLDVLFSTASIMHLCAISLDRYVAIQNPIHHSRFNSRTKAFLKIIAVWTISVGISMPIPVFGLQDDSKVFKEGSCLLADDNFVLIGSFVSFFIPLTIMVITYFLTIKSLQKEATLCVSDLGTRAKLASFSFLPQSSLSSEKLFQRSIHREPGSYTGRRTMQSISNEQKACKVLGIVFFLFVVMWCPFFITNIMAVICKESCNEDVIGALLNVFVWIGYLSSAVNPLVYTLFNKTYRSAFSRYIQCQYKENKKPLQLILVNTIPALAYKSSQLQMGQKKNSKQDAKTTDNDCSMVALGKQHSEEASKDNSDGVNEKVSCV
T2 sequence (P28223 whole entry): as above

[2H]C([2H])(c1c[nH]c2ccccc12)[C@H]1CCCN1 [I-B-8, (R)-3-(pyrrolidin-2-ylmethyl-d2)-1H-indole]
Remaining Percentage (%) after 60 min Rat [1]: 38.89%
half-life at 2 μM [1]: 0.734 h
microsomal CLint at 2 μM [1]: 31.5 µL/min/mg
pIC50 (human 5-HT2A [2]): 5.30 to 6.30
Remaining Percentage (%) after 60 min Human [3, 8]: 91.11%
half-life at 2 μM [3]: 7.44 h
microsomal CLint at 2 μM [3]: 3.1 µL/min/mg
half-life at 2 μM [4]: 1.22 h
microsomal CLint at 2 μM [4]: 18.9 µL/min/mg
Remaining Percentage (%) after 60 min Mouse [4]: 56.72%
pEC50 [5]: 6.00 to 7.00

[2H]C([2H])(c1c[nH]c2ccc(OC)cc12)[C@H]1CCCN1C([2H])([2H])[2H] [I-B-13, (R)-5-methoxy-3-((1-(methyl-d3)pyrrolidin-2-yl)methyl-d2)-1H-indole]
pIC50 (human 5-HT2A [2]): > 6.30
pEC50 [5]: > 7.00

CN(C)CCc1c[nH]c2ccccc12 [DMT, N,N-dimethyltryptamine, reference compound]
Remaining Percentage (%) after 60 min Rat [1]: 17.29%
half-life at 2 μM [1]: 0.378 h
microsomal CLint at 2 μM [1]: 61 µL/min/mg
pIC50 (human 5-HT2A [2]): 5.30 to 6.30
pKi (human 5-HT2A [6]): 9.63
oral activity [7]: not orally active
Remaining Percentage (%) after 60 min Human [3, 8]: 0.72%
half-life at 2 μM [4]: 0.842 h
microsomal CLint at 2 μM [4]: 27.4 µL/min/mg
Remaining Percentage (%) after 60 min Mouse [4]: 65.90%
pEC50 [5]: 6.00 to 7.00

[2H]C([2H])(c1c[nH]c2ccc(OC)cc12)[C@H]1CCCN1C [I-B-10, (R)-5-methoxy-3-((1-methylpyrrolidin-2-yl)methyl-d2)-1H-indole]
Remaining Percentage (%) after 60 min Rat [1]: 35.87%
half-life at 2 μM [1]: 0.676 h
microsomal CLint at 2 μM [1]: 29 µL/min/mg
pIC50 (human 5-HT2A [2]): > 6.30
Remaining Percentage (%) after 60 min Human [3, 8]: 78.24%
half-life at 2 μM [3]: 2.82 h
microsomal CLint at 2 μM [3]: 6.86 µL/min/mg
half-life at 2 μM [4]: 1.51 h
microsomal CLint at 2 μM [4]: 38.4 µL/min/mg
Remaining Percentage (%) after 60 min Mouse [4]: 63.17%
pEC50 [5]: > 7.00

[2H]C([2H])(c1c[nH]c2ccc(OC)cc12)[C@H]1CCCN1 [I-B-16, (R)-5-methoxy-3-(pyrrolidin-2-ylmethyl-d2)-1H-indole]
Remaining Percentage (%) after 60 min Rat [1]: 34.51%
half-life at 2 μM [1]: 0.651 h
microsomal CLint at 2 μM [1]: 29.5 µL/min/mg
pIC50 (human 5-HT2A [2]): > 6.30
Remaining Percentage (%) after 60 min Human [3, 8]: 85.35%
half-life at 2 μM [3]: 4.38 h
microsomal CLint at 2 μM [3]: 5.01 µL/min/mg
half-life at 2 μM [4]: 1.36 h
microsomal CLint at 2 μM [4]: 40.6 µL/min/mg
Remaining Percentage (%) after 60 min Mouse [4]: 60.16%
pEC50 [5]: > 7.00

COc1ccc2[nH]cc(CCN(C)C)c2c1 [Compound 5-MeO-DMT, 5-methoxy-N,N-dimethyltryptamine, reference compound]
Remaining Percentage (%) after 60 min Rat [1]: 16.02%
half-life at 2 μM [1]: 0.378 h
microsomal CLint at 2 μM [1]: 61 µL/min/mg
oral activity [7]: not orally active
CLint (μL/min/mg protein) Human [3, 8]: 101.08 μL/min/mg protein
Half-Life t1/2 (min) Human [3, 8]: 13.75 min
Remaining Percentage (%) after 60 min Human [3, 8]: 4.82%
half-life at 2 μM [4]: 0.842 h
microsomal CLint at 2 μM [4]: 27.4 µL/min/mg
Remaining Percentage (%) after 60 min Mouse [4]: 89.36%

[2H]C([2H])([2H])Oc1ccc2[nH]cc(C[C@H]3CCCN3C([2H])([2H])[2H])c2c1 [I-B-11, (R)-5-(methoxy-d3)-3-((1-(methyl-d3)pyrrolidin-2-yl)methyl)-1H-indole]
Remaining Percentage (%) after 60 min Rat [1]: 34.51%
half-life at 2 μM [1]: 0.651 h
microsomal CLint at 2 μM [1]: 29.5 µL/min/mg
pIC50 (human 5-HT2A [2]): > 6.30
Remaining Percentage (%) after 60 min Human [3, 8]: 85.35%
half-life at 2 μM [3]: 4.38 h
microsomal CLint at 2 μM [3]: 5.01 µL/min/mg
half-life at 2 μM [4]: 1.36 h
microsomal CLint at 2 μM [4]: 40.6 µL/min/mg
Remaining Percentage (%) after 60 min Mouse [4]: 60.16%
pEC50 [5]: > 7.00

[2H]C([2H])(c1c[nH]c2ccccc12)[C@H]1CCCN1C [I-B-2, (R)-3-((1-methylpyrrolidin-2-yl)methyl-d2)-1H-indole]
Remaining Percentage (%) after 60 min Rat [1]: 0.81%
half-life at 2 μM [1]: 0.144 h
microsomal CLint at 2 μM [1]: 46.3 µL/min/mg
pIC50 (human 5-HT2A [2]): > 6.30
Remaining Percentage (%) after 60 min Human [3, 8]: 64.96%
half-life at 2 μM [3]: 1.61 h
microsomal CLint at 2 μM [3]: 9.64 µL/min/mg
half-life at 2 μM [4]: 1.02 h
microsomal CLint at 2 μM [4]: 47.1 µL/min/mg
Remaining Percentage (%) after 60 min Mouse [4]: 50.81%
pEC50 [5]: > 7.00

[2H]C([2H])([2H])Oc1ccc2[nH]cc(C([2H])([2H])[C@H]3CCCN3C([2H])([2H])[2H])c2c1 [I-B-12, (R)-5-(methoxy-d3)-3-((1-(methyl-d3)pyrrolidin-2-yl)methyl-d2)-1H-indole]
Remaining Percentage (%) after 60 min Rat [1]: 35.87%
half-life at 2 μM [1]: 0.676 h
microsomal CLint at 2 μM [1]: 29 µL/min/mg
pIC50 (human 5-HT2A [2]): > 6.30
Remaining Percentage (%) after 60 min Human [3, 8]: 78.24%
half-life at 2 μM [3]: 2.82 h
microsomal CLint at 2 μM [3]: 6.86 µL/min/mg
half-life at 2 μM [4]: 1.51 h
microsomal CLint at 2 μM [4]: 38.4 µL/min/mg
Remaining Percentage (%) after 60 min Mouse [4]: 63.17%
pEC50 [5]: > 7.00

[2H]C([2H])([2H])Oc1ccc2[nH]cc(C[C@H]3CCCN3)c2c1 [I-B-14, (R)-5-(methoxy-d3)-3-(pyrrolidin-2-ylmethyl)-1H-indole]
Remaining Percentage (%) after 60 min Rat [1]: 92.44%
half-life at 2 μM [1]: 8.82 h
microsomal CLint at 2 μM [1]: 4.33 µL/min/mg
pIC50 (human 5-HT2A [2]): > 6.30
Half-Life t1/2 (min) Human [3, 8]: ∞
Remaining Percentage (%) after 60 min Human [3, 8]: 110.97%
half-life at 2 μM [4]: 8.15 h
microsomal CLint at 2 μM [4]: 10.9 µL/min/mg
Remaining Percentage (%) after 60 min Mouse [4]: 91.85%
pEC50 [5]: > 7.00

[2H]C([2H])([2H])Oc1ccc2[nH]cc(C([2H])([2H])[C@H]3CCCN3)c2c1 [I-B-15, (R)-5-(methoxy-d3)-3-(pyrrolidin-2-ylmethyl-d2)-1H-indole]
pIC50 (human 5-HT2A [2]): > 6.30
pEC50 [5]: > 7.00

[2H]C([2H])([2H])N1CCC[C@@H]1Cc1c[nH]c2ccc(OC)cc12 [I-B-9, (R)-5-methoxy-3-((1-(methyl-d3)pyrrolidin-2-yl)methyl)-1H-indole]
pIC50 (human 5-HT2A [2]): > 6.30
pEC50 [5]: > 7.00
